Measurements: patent publication US5466809A (Toronto Research Chemicals, Inc., priority 1994, dated 1995)
In brackets after ≈: the same amount, converted by molar mass. Several values for one entry are separate records, joined by “and”; a condition that tells them apart may be missing. Identical values can stand only once. Like-named read-outs stand apart in the source and are kept apart here.

Key:
[1] = molecular target: T1, Jack Bean alpha-mannosidase (Canavalia ensiformis, UniProt C0HJB3); test: Jack Bean alpha-mannosidase assay; format: biochemical; settings: pH 6.0, 37° C., 30 minutes, p-nitrophenyl-alpha-D-mannopyranoside substrate; read-out: D50 Values (Inhibition), J.B. mannosidase (converted)
T1 sequence (C0HJB3 1-981): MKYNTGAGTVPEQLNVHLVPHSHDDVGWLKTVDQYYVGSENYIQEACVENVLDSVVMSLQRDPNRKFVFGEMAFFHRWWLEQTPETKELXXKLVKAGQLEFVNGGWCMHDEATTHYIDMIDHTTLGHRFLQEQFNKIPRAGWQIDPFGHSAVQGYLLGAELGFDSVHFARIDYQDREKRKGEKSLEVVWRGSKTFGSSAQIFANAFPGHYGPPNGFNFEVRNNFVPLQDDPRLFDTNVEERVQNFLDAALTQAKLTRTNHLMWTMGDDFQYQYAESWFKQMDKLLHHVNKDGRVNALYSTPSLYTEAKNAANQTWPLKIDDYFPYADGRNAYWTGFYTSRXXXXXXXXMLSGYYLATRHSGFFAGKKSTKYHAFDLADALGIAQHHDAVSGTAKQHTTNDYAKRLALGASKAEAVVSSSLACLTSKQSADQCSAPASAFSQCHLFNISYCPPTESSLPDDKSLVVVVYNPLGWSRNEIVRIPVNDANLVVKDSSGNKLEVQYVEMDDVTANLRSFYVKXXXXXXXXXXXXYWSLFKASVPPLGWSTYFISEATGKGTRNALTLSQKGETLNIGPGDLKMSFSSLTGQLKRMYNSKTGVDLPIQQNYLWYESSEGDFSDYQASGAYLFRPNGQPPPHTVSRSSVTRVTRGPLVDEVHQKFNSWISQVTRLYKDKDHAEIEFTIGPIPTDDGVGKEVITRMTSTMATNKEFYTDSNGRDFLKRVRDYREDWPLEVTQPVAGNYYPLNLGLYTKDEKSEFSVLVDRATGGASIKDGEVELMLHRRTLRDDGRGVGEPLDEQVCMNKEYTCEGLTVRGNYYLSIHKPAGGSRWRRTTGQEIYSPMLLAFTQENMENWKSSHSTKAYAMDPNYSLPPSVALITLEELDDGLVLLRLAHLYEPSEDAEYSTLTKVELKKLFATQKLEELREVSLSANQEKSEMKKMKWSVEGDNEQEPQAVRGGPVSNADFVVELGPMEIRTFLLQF
Description: Jack Bean alpha-Mannosidase Assay. […] A volume (37.5 ul) of 0.05M sodium acetate (pH 6.0) was added to each well, followed by 37.5 ul of 0.01M p-nitrophenyl-alpha-D-mannopyanoside, and then 10 ul of a 1:400 dilution of Jack Bean alpha-mannosidase. After thoroughly shaking to mix, the mixture was incubated at 37° C. for 30 minutes. The reaction was stopped by the addition of 150 ul of 0.5M sodium carbonate (pH 10.0). The absorbance at 405 nm of the solution in the wells was determined in an ELISA plate reader.

[2] = tested on: N-linked oligosaccharide processing; test: L-PHA lectin sensitivity assay for inhibition of N-linked oligosaccharide processing; format: cell-based
Description: This test also indicates whether the compounds enter tumor cells and measures the degree of toxicity of the compounds for cells. The test is described in J. W. Dennis, Cancer Research 46:5131, 1986.
Essentially, 2×10^4 cells are placed in individual wells of a 96-well microtest plate, wherein the wells contain serial dilutions of the compounds to be tested. […] […] The cells are then harvested and the amount of radioactivity incorporated into the host cell DNA is measured in a liquid scintillation counter. The amount of radioactivity present in cells in wells in the absence of L-PHA reflects the toxicity of the test compound and the amount of radioactivity present in the presence of L-PHA reflects the level of inhibition of oligosaccharide processing induced by the test compound.

bone marrow cells [3] = test: In vivo bone marrow CFU formation and bone marrow cellularity, dose dependent effect; parameters: species or system C57BL/6 mice; settings: for optimal dose / Effect on bone marrow cellularity and CFU formation compared with swainsonine (summary) / Effect on bone marrow cellularity and CFU formation (summary): summary of experiments; for Effect on bone marrow cellularity and CFU formation compared with swainsonine (summary): for 3 and 23 versus 10 μg swainsonine; for Mean of CFU Formation / Mean of Cellularity: 4 days
Description: (§1) Assay for Bone Marrow Cell Proliferation Induced by Swansonine Analogues. Pathogen-free C57BL/6 mice at 8-14 weeks of age were quarantined for one week prior to their use in the experiments described below. Mice were inoculated intraperitoneally twice daily with a designated dose of swainsonine or an analogue of swainsonine for a period of four days. Eighteen hours following the last injection, the mice were sacrificed, bone marrow cells were obtained using standard technology (S. C. White et al., J. Natl. Cancer Inst. 83 1125, 1991). Cellularity of the bone marrow cells so obtained was determined by directly counting the cells after they were flushed from the femurs and tibia of the mice. The cells were processed according to the procedure described in the GIBCO-BRL Mouse Bone Stem Cell Proliferation Kit, and the number of colony forming units (CFU) was assessed using the procedures also described in the kit. For kinetic experiments, mice were administered 10 ug of the analogue (this was the optimum dose in all cases) twice daily for the designated number of days. The experiments were designed so that all regimens terminated on the same day. Eighteen hours after the last injection, the mice were sacrificed and bone marrow cells were obtained and processed as described above.

bone marrow cells [4] = test: In vivo bone marrow CFU formation and cellularity, time course (kinetic experiments); parameters: species or system C57BL/6 mice; settings: 10 μg twice daily i.p.
Description: as §1

[5] = L-PHA assay, 3H-thymidine incorporation, read-out: D50 Values (Inhibition), L-PHA assay
[6] = Expt. 1, 10 μg twice daily i.p.
[7] = Expt. 1, 20 μg twice daily i.p.
[8] = Expt. 2, 10 μg twice daily i.p.
[9] = Expt. 1, 40 μg twice daily i.p.

CCOC1CC(=O)N2C[C@@H](O)[C@@H](O)[C@H]2[C@@H]1O (stereo partly drawn) [Compound 23, 7-ethoxy-(1S,2R,8R,8aR)-1,2,8-trihydroxy-octahydro-5-oxyindolizine]
IC50 [1]: 43.2 µM
IC50 [2, 5]: > 1 µg/mL
optimal dose (bone marrow cells [3]): 10 µg
Effect on bone marrow cellularity and CFU formation compared with swainsonine (summary) (bone marrow cells [3]): comparable to

O=C1N[C@@H]2[C@@H](O)[C@@H](O)[C@H](O)[C@@H](CO)N2C1=O [Kefunensine, reference compound]
IC50 [1]: 151 µM
IC50 [2, 5]: 1 µg/mL (≈ 4.31 µM)

CCCC(=O)O[C@@H]1CN2CCC[C@@H](O)[C@@H]2[C@@H]1O [Compound 3, 1S-8a-β-2-alpha-butanoyloxyoctahydroindolizine-1-alpha-8-β-diol]
IC50 [1]: 144 µM
amount of radioactivity incorporated by cells ([2]; 3H-thymidine incorporation, compared with swainsonine): comparable to that of swainsonine
IC50 [2, 5]: 0.066 µg/mL (≈ 0.271 µM)
optimal dose (bone marrow cells [3]): 10 µg
Effect on bone marrow cellularity and CFU formation compared with swainsonine (summary) (bone marrow cells [3]): comparable to

O=C(O[C@@H]1CN2CCC[C@@H](O)[C@@H]2[C@@H]1O)c1ccc([N+](=O)[O-])cc1 [Compound 42, 1S-8a-β-2-alpha-p-nitorbenzoyloxyoctahydroindolizine-1-alpha-8-β-diol]
IC50 [1]: 109 µM
IC50 [2, 5]: 0.066 µg/mL (≈ 0.205 µM)
Mean of CFU Formation (bone marrow cells [3]; Expt. 1, 5 μg twice daily i.p.): 213 CFU
Mean of Cellularity (bone marrow cells [3]; Expt. 1, 5 μg twice daily i.p.): 2.68 × 10^7
Mean of CFU Formation (bone marrow cells [3]; [6]): 373 CFU
Mean of Cellularity (bone marrow cells [3]; [6]): 3.21 × 10^7
Mean of CFU Formation (bone marrow cells [3]; [7]): 242 CFU
Mean of Cellularity (bone marrow cells [3]; [7]): 2.63 × 10^7
Effect on bone marrow cellularity and CFU formation (summary) (bone marrow cells [3]): Stimulates CFU & cellularity

O[C@@H]1[C@H](O)[C@H](O)CN2C[C@@H](O)[C@@H](O)[C@@H]12 [Compound 36, 1S-1-alpha-2-alpha-6β,7β-8β-pentahydroxy-8a-β-octahydroindolizine]
Mean of CFU Formation (bone marrow cells [3]; Expt. 1, 5 μg twice daily i.p.): 291 CFU
Mean of Cellularity (bone marrow cells [3]; Expt. 1, 5 μg twice daily i.p.): 2.28 × 10^7
Mean of CFU Formation (bone marrow cells [3]; [6]): 545 CFU
Mean of Cellularity (bone marrow cells [3]; [6]): 5.27 × 10^7
Mean of CFU Formation (bone marrow cells [3]; [7]): 327 CFU
Mean of Cellularity (bone marrow cells [3]; [7]): 2.59 × 10^7

CCCCCCCC(=O)O[C@@H]1CN2CCC[C@@H](O)[C@@H]2[C@@H]1O [Compound 6, 1S-8a-β-2-alpha-octanoyloxyoctahydroindolizine-1-alpha-8-β-diol]
IC50 [1]: 117 µM
IC50 [2, 5]: 0.066 µg/mL (≈ 0.22 µM)
Mean of CFU Formation (bone marrow cells [4]; 1 day): 250 CFU
Mean of Cellularity (bone marrow cells [4]; 1 day): 3.56 × 10^7
Mean of CFU Formation (bone marrow cells [4]; 2 days): 432 CFU
Mean of Cellularity (bone marrow cells [4]; 2 days): 4.63 × 10^7
Mean of CFU Formation (bone marrow cells [4]; 3 days): 550 CFU
Mean of Cellularity (bone marrow cells [4]; 3 days): 5.88 × 10^7
Mean of CFU Formation (bone marrow cells [4]; 4 days): 618 CFU
Mean of Cellularity (bone marrow cells [4]; 4 days): 7.63 × 10^7
Mean of CFU Formation (bone marrow cells [4]; 5 days): 614 CFU
Mean of Cellularity (bone marrow cells [4]; 5 days): 6.25 × 10^7
Mean of CFU Formation (bone marrow cells [4]; 6 days): 488 CFU
Mean of Cellularity (bone marrow cells [4]; 6 days): 5.38 × 10^7
Mean of CFU Formation (bone marrow cells [3]; Expt. 1, 5 μg twice daily i.p.): 200 CFU
Mean of Cellularity (bone marrow cells [3]; Expt. 1, 5 μg twice daily i.p.): 2.57 × 10^7
Mean of CFU Formation (bone marrow cells [3]; [6]): 437 CFU
Mean of Cellularity (bone marrow cells [3]; [6]): 3.83 × 10^7
Mean of CFU Formation (bone marrow cells [3]; [7]): 295 CFU
Mean of Cellularity (bone marrow cells [3]; [7]): 2.73 × 10^7
Effect on bone marrow cellularity and CFU formation (summary) (bone marrow cells [3]): Stimulates CFU and cellularity
Effect on bone marrow cellularity and CFU formation compared with swainsonine (summary) (bone marrow cells [3]): not approximating swainsonine

O[C@H]1[C@H]2[C@H](O)CCCN2C[C@H]1O [swainsonine, 1S-8a-β-octahydroindolizine-1-alpha-2-alpha-8-β-triol, reference compound]
IC50 ([2]; 30 ug/ml L-PHA, read-out: I50): ~0.02 µg/mL and ~100 nM
IC50 [2, 5]: 0.033 µg/mL (≈ 0.191 µM)
Mean of CFU Formation (bone marrow cells [3]; [6]): 550 CFU and 446 CFU
Mean of Cellularity (bone marrow cells [3]; [6]): 5.86 × 10^7 and 3.73 × 10^7
Mean of Cellularity (bone marrow cells [3]; [8]): 5.76 × 10^7

Cc1ccc(C(=O)O[C@@H]2CN3CCC[C@@H](O)[C@@H]3[C@@H]2O)cc1 [Compound 41, 1S-8a-β-2-alpha-p-toluoyloxyoctahydroindolizine-1-alpha-8-β-diol]
IC50 [1]: 343 µM
IC50 [2, 5]: 1 µg/mL (≈ 3.43 µM)
Mean of CFU Formation (bone marrow cells [3]; Expt. 1, 5 μg twice daily i.p.): 195 CFU
Mean of Cellularity (bone marrow cells [3]; Expt. 1, 5 μg twice daily i.p.): 2.22 × 10^7
Mean of CFU Formation (bone marrow cells [3]; [6]): 359 CFU
Mean of Cellularity (bone marrow cells [3]; [6]): 2.99 × 10^7
Mean of CFU Formation (bone marrow cells [3]; [7]): 214 CFU
Mean of Cellularity (bone marrow cells [3]; [7]): 2.14 × 10^7
Effect on bone marrow cellularity and CFU formation (summary) (bone marrow cells [3]): Stimulates CFU & cellularity

O=C(O[C@@H]1CN2CCC[C@@H](O)[C@@H]2[C@@H]1O)c1ccccc1 [Compound 5, 1S-8a-β-2-alpha-benzoyloxyoctahydroindolizine-1-alpha-8-β-diol]
IC50 [1]: 252 µM
IC50 [2, 5]: 0.5 µg/mL (≈ 1.8 µM)
Mean of CFU Formation (bone marrow cells [4]; 1 day): 250 CFU
Mean of Cellularity (bone marrow cells [4]; 1 day): 3.00 × 10^7
Mean of CFU Formation (bone marrow cells [4]; 2 days): 436 CFU
Mean of Cellularity (bone marrow cells [4]; 2 days): 4.18 × 10^7
Mean of CFU Formation (bone marrow cells [4]; 3 days): 568 CFU
Mean of Cellularity (bone marrow cells [4]; 3 days): 5.59 × 10^7
Mean of CFU Formation (bone marrow cells [4]; 4 days): 623 CFU
Mean of Cellularity (bone marrow cells [4]; 4 days): 7.42 × 10^7
Mean of CFU Formation (bone marrow cells [4]; 5 days): 621 CFU
Mean of Cellularity (bone marrow cells [4]; 5 days): 6.88 × 10^7
Mean of CFU Formation (bone marrow cells [4]; 6 days): 518 CFU
Mean of Cellularity (bone marrow cells [4]; 6 days): 5.24 × 10^7
Mean of CFU Formation (bone marrow cells [3]; Expt. 1, 5 μg twice daily i.p.): 200 CFU
Mean of Cellularity (bone marrow cells [3]; Expt. 1, 5 μg twice daily i.p.): 2.91 × 10^7
Mean of CFU Formation (bone marrow cells [3]; [6]): 324 CFU
Mean of Cellularity (bone marrow cells [3]; [6]): 5.76 × 10^7
Mean of CFU Formation (bone marrow cells [3]; [7]): 293 CFU
Mean of Cellularity (bone marrow cells [3]; [7]): 3.07 × 10^7
Mean of CFU Formation (bone marrow cells [3]; [9]): 287 CFU
Mean of Cellularity (bone marrow cells [3]; [9]): 3.07 × 10^7
Mean of Cellularity (bone marrow cells [3]; Expt. 2, 5 μg twice daily i.p.): 3.33 × 10^7
Mean of Cellularity (bone marrow cells [3]; [8]): 4.76 × 10^7
Mean of Cellularity (bone marrow cells [3]; Expt. 2, 20 μg twice daily i.p.): 3.38 × 10^7
Effect on bone marrow cellularity and CFU formation (summary) (bone marrow cells [3]): Stimulates CFU & cellularity
